Test: xn = mol fraction of the nth substance listed
Settings: for electrical conductivity: frequency 0.01 MHz

CC1CCC(=O)O1 (centres undefined) + CCCC[n+]1ccn(C)c1.O=S(=O)([N-]S(=O)(=O)C(F)(F)F)C(F)(F)F
electrical conductivity [S/m], 100 kPa
Settings | 293.15 K | 298.15 K | 303.15 K | 308.15 K | 313.15 K | 318.15 K | 323.15 K
x2 = 0.0505 | 0.666 | 0.719 | 0.785 | 0.849 | 0.914 | 0.986 | 1.05
x2 = 0.1001 | 1.01 | 1.11 | 1.21 | 1.31 | 1.42 | 1.54 | 1.67
x2 = 0.1492 | 1.11 | 1.21 | 1.32 | 1.45 | 1.58 | 1.73 | 1.87
x2 = 0.1998 | 1.1 | 1.21 | 1.34 | 1.48 | 1.62 | 1.77 | 1.92
x2 = 0.3008 | 0.993 | 1.1 | 1.22 | 1.36 | 1.5 | 1.64 | 1.79
x2 = 0.4031 | 0.816 | 0.913 | 1.02 | 1.13 | 1.25 | 1.38 | 1.51
x2 = 0.5048 | 0.677 | 0.762 | 0.854 | 0.96 | 1.07 | 1.19 | 1.31
x2 = 0.6031 | 0.561 | 0.636 | 0.72 | 0.818 | 0.918 | 1.03 | 1.16
x2 = 0.6973 | 0.476 | 0.544 | 0.623 | 0.712 | 0.81 | 0.918 | 1.03
x2 = 0.7994 | 0.394 | 0.457 | 0.531 | 0.612 | 0.703 | 0.807 | 0.919
x2 = 0.8711 | 0.364 | 0.425 | 0.498 | 0.575 | 0.663 | 0.763 | 0.869

CN(C)c1ccccc1 + CCCC[n+]1ccn(C)c1.O=S(=O)([N-]S(=O)(=O)C(F)(F)F)C(F)(F)F
viscosity [mPa·s], 100 kPa
Settings | 288.15 K | 293.15 K | 298.15 K | 303.15 K | 308.15 K | 313.15 K | 318.15 K | 323.15 K | 328.15 K | 333.15 K
x1 = 0.1 | 65.1 | 51.3 | 41.3 | 34 | 28.3 | 23.6 | 20.23 | 17.37 | 15.09 | 13.19
x1 = 0.2 | 52.2 | 41.4 | 33.6 | 28 | 23.4 | 19.61 | 16.9 | 14.6 | 12.74 | 11.19
x1 = 0.2993 | 40.5 | 32.4 | 26.6 | 22.26 | 18.75 | 15.88 | 13.77 | 11.97 | 10.49 | 9.29
x1 = 0.4001 | 30.4 | 24.6 | 20.44 | 17.16 | 14.66 | 12.5 | 10.93 | 9.56 | 8.44 | 7.52
x1 = 0.5005 | 21.72 | 17.79 | 15.06 | 12.73 | 10.96 | 9.44 | 8.34 | 7.36 | 6.55 | 5.86
x1 = 0.5993 | 15.08 | 12.54 | 10.77 | 9.21 | 8.02 | 7 | 6.21 | 5.53 | 4.98 | 4.49
x1 = 0.7 | 9.89 | 8.36 | 7.29 | 6.34 | 5.58 | 4.93 | 4.42 | 3.98 | 3.62 | 3.29
x1 = 0.7996 | 6.07 | 5.25 | 4.64 | 4.12 | 3.68 | 3.3 | 3 | 2.74 | 2.5 | 2.3
x1 = 0.8997 | 3.33 | 2.96 | 2.67 | 2.42 | 2.205 | 2.028 | 1.858 | 1.716 | 1.591 | 1.485
x1 = 1 | 1.536 | 1.415 | 1.302 | 1.206 | 1.123 | 1.056 | 0.981 | 0.92 | 0.865 | 0.819

COC(=O)OC + CCCC[n+]1ccn(C)c1.O=S(=O)([N-]S(=O)(=O)C(F)(F)F)C(F)(F)F
viscosity [mPa·s], 101.3 kPa
Settings | 288.15 K | 293.15 K | 298.15 K | 303.15 K | 308.15 K | 313.15 K
x2 = 0 | 0.668 | 0.628 | 0.588 | 0.553 | 0.524 | –
x2 = 0.003644 | 0.699 | 0.653 | 0.611 | 0.575 | 0.541 | 0.511
x2 = 0.004269 | 0.706 | 0.659 | 0.616 | 0.58 | 0.545 | 0.515
x2 = 0.005082 | 0.715 | 0.667 | 0.624 | 0.586 | 0.551 | 0.52
x2 = 0.005901 | 0.722 | 0.674 | 0.631 | 0.593 | 0.557 | 0.525
x2 = 0.00751 | 0.741 | 0.69 | 0.646 | 0.606 | 0.57 | 0.537
x2 = 0.008724 | 0.746 | 0.695 | 0.651 | 0.61 | 0.575 | 0.541
x2 = 0.009626 | 0.749 | 0.7 | 0.657 | 0.617 | 0.583 | 0.549
x2 = 0.01106 | 0.781 | 0.727 | 0.678 | 0.636 | 0.597 | 0.562
x2 = 0.012 | 0.792 | 0.737 | 0.687 | 0.644 | 0.605 | 0.57
x2 = 0.01269 | 0.801 | 0.744 | 0.695 | 0.651 | 0.61 | 0.576
x2 = 0.01439 | 0.817 | 0.759 | 0.708 | 0.663 | 0.621 | 0.586
x2 = 0.01534 | 0.827 | 0.768 | 0.717 | 0.671 | 0.629 | 0.592
x2 = 0.01537 | 0.827 | 0.768 | 0.717 | 0.671 | 0.629 | 0.592
x2 = 0.01726 | 0.847 | 0.786 | 0.734 | 0.686 | 0.643 | 0.604
x2 = 0.01986 | 0.874 | 0.811 | 0.755 | 0.706 | 0.662 | 0.621
x2 = 0.02243 | 0.902 | 0.836 | 0.778 | 0.728 | 0.681 | 0.641
x2 = 0.02369 | 0.914 | 0.847 | 0.788 | 0.736 | 0.689 | 0.648
x2 = 0.02616 | 0.937 | 0.869 | 0.808 | 0.754 | 0.706 | 0.663
x2 = 0.02694 | 0.945 | 0.876 | 0.814 | 0.759 | 0.711 | 0.668
x2 = 0.02906 | 0.968 | 0.897 | 0.834 | 0.778 | 0.728 | 0.683
x2 = 0.03392 | 1.016 | 0.94 | 0.873 | 0.814 | 0.76 | 0.714
x2 = 0.03978 | 1.072 | 0.991 | 0.921 | 0.857 | 0.802 | 0.751
x2 = 0.04295 | 1.102 | 1.019 | 0.945 | 0.88 | 0.822 | 0.77
x2 = 0.04638 | 1.134 | 1.048 | 0.971 | 0.904 | 0.845 | 0.791

N + CCCC[n+]1ccn(C)c1.O=S(=O)([N-]S(=O)(=O)C(F)(F)F)C(F)(F)F
313.2 K, 101 kPa
Settings | viscosity [mPa·s]
x2 = 0.7997 | 20.1
x2 = 0.8338 | 21.7
x2 = 0.8696 | 22
x2 = 0.9099 | 23.1
x2 = 0.9541 | 25.1

c1ccsc1 + CCCC[n+]1ccn(C)c1.O=S(=O)([N-]S(=O)(=O)C(F)(F)F)C(F)(F)F
viscosity [mPa·s], 100 kPa
Settings | x1 = 0.089 | x1 = 0.276 | x1 = 0.561 | x1 = 1
298.15 K | – | – | 14.73 | 0.655
308.15 K | 29 | 18.8 | – | –

CN(C)c1ccccc1 + CCCC[n+]1ccn(C)c1.O=S(=O)([O-])C(F)(F)F
100 kPa
Settings | viscosity [mPa·s]
288.15 K, x1 = 0.2998 | 54
288.15 K, x1 = 0.397 | 39.3
288.15 K, x1 = 0.6997 | 10.05
288.15 K, x1 = 1 | 1.536
293.15 K, x1 = 1 | 1.415
298.15 K, x1 = 0.397 | 25.9
298.15 K, x1 = 0.8945 | 2.63
308.15 K, x1 = 0.2 | 30.7
313.15 K, x1 = 0.2 | 25.2
313.15 K, x1 = 0.6997 | 5.03
318.15 K, x1 = 0.1 | 27.1
318.15 K, x1 = 0.6997 | 4.54
318.15 K, x1 = 0.8945 | 1.828
323.15 K, x1 = 1 | 0.92
328.15 K, x1 = 0.1 | 19.6
328.15 K, x1 = 0.8945 | 1.569
333.15 K, x1 = 0.1 | 16.91
333.15 K, x1 = 0.5045 | 6.71
333.15 K, x1 = 0.8945 | 1.463

— the CheMixHub ionic liquid set
